Measured values published in patent publication US11759462B2, “Spirocyclic compounds as tryptophan hydroxylase inhibitors” (priority 2013, dated 2023).

Test system: jejunal mucosal 5-HT in mice (C57 BL6)
Assay: Intestinal 5-HT depletion assay (Example B, single 150 mg/kg oral dose)
Assay type: in vivo, mouse
Conditions: one day after oral administration of a single 150 mg/kg dose, P-value class (ANOVA)
Experimental: The efficacy of the TPH1 inhibitors of the invention was assessed for the ability to decrease intestinal serotonin concentration in mice. Mice (C57 BL6) were administered a single 150 mg/kg dose of test article by oral gavage. Each animal was euthanized by exsanguination under isoflurane anesthesia. Jejunal intestinal mucosa was isolated and homogenized in 300 μL of a buffer containing 0.3M trichloroacetic acid, 0.1M sodium acetate, 10 mM EDTA, 20 mM sodium bisulfate and 50 mM ascorbic acid. Following centrifugation the 5-HT levels in the supernatants were measured by HPLC. The remaining mucosal pellet was solubilized overnight at 37° C. in a 0.1% sodium dodecyl sulfate buffer in 0.1N NaOH followed by determination of protein concentrations using a BCA protein assay (Pierce, Rockford, Ill. 5-HT levels were normalized to protein and data were expressed as mean percent reduction of mucosal 5-HT levels relative to vehicle control SEM (percent 5-HT reduction). All animal studies were carried out with protocols approved by the Institutional Animal Care and Use Committee.
P-values, indicating statistical significance of the data (ANOVA) are provided in the table: * refers to P<0.05, ** refers to P<0.01, *** refers to P<0.005, and refers to P<0.0005.

Molecule | Efficacy (statistical significance of reduction of mucosal 5-HT concentrations relative to vehicle)
CCOC(=O)CCc1ccc([C@@H](Oc2cc(N3CCC4(CC3)CN[C@H](C(=O)OCC)C4)nc(N)n2)C(F)(F)F)c(-n2ccc(C)n2)c1 [Example 63bz, (S)-ethyl 8-(2-amino-6-((R)-1-(4-(3-ethoxy-3-oxopropyl)-2-(3-methyl-1H-pyrazol-1-yl)phenyl)-2,2,2-trifluoroethoxy)pyrimidin-4-yl)-2,8-diazaspiro[4.5]decane-3-carboxylate] | ** (** refers to P<0.01)
CCOC(=O)[C@@H]1CC2(CCN(c3cc(O[C@H](c4ccc(-c5ccc(CNC(C)=O)cc5)cc4-n4ccc(C)n4)C(F)(F)F)nc(N)n3)CC2)CN1 [Example 63cp, (S)-ethyl 8-(6-((R)-1-(4′-(acetamidomethyl)-3-(3-methyl-1H-pyrazol-1-yl)-[1,1′-biphenyl]-4-yl)-2,2,2-trifluoroethoxy)-2-aminopyrimidin-4-yl)-2,8-diazaspiro[4.5]decane-3-carboxylate] | *** (*** refers to P<0.005)
CCOC(=O)c1ccccc1-c1ccc(-n2ccc(C)n2)c([C@@H](Oc2cc(N3CCC4(CC3)CN[C@H](C(=O)OCC)C4)nc(N)n2)C(F)(F)F)c1 [Example 63da, (S)-ethyl 8-(2-amino-6-((R)-1-(2′-(ethoxycarbonyl)-4-(3-methyl-1H-pyrazol-1-yl)-[1,1′-biphenyl]-3-yl)-2,2,2-trifluoroethoxy)pyrimidin-4-yl)-2,8-diazaspiro[4.5]decane-3-carboxylate] | *** (*** refers to P<0.005)
CCOC(=O)CCc1ccc(-c2ccc(-n3ccc(C)n3)c([C@@H](Oc3cc(N4CCC5(CC4)CN[C@H](C(=O)OCC)C5)nc(N)n3)C(F)(F)F)c2)cc1 [Example 63di, (S)-ethyl 8-(2-amino-6-((R)-1-(4′-(3-ethoxy-3-oxopropyl)-4-(3-methyl-1H-pyrazol-1-yl)-[1,1′-biphenyl]-3-yl)-2,2,2-trifluoroethoxy)pyrimidin-4-yl)-2,8-diazaspiro[4.5]decane-3-carboxylate] | *** (*** refers to P<0.005)
CCOC(=O)[C@@H]1CC2(CCN(c3cc(O[C@H](c4ccc(-c5ccc(OC)c(OC)c5)cc4)C(F)(F)F)nc(N)n3)CC2)CN1 [Example 63g, (S)-ethyl 8-(2-amino-6-((R)-1-(3′,4′-dimethoxy-[1,1′-biphenyl]-4-yl)-2,2,2-trifluoroethoxy)pyrimidin-4-yl)-2,8-diazaspiro[4.5]decane-3-carboxylate] | *** (*** refers to P<0.005)
CCCCCOC(=O)[C@@H]1CC2(CCN(c3cc(O[C@H](c4ccc(Cl)cc4-n4ccc(C)n4)C(F)(F)F)nc(N)n3)CC2)CN1 [Example 64c, (S)-pentyl 8-(2-amino-6-((R)-1-(4-chloro-2-(3-methyl-1H-pyrazol-1-yl)phenyl)-2,2,2-trifluoroethoxy)pyrimidin-4-yl)-2,8-diazaspiro[4.5]decane-3-carboxylate] | **** (and refers to P<0.0005)
CCCOC(=O)[C@@H]1CC2(CCN(c3cc(O[C@H](c4ccc(Cl)cc4-n4ccc(C)n4)C(F)(F)F)nc(N)n3)CC2)CN1 [Example 64e, (S)-propyl 8-(2-amino-6-((R)-1-(4-chloro-2-(3-methyl-1H-pyrazol-1-yl)phenyl)-2,2,2-trifluoroethoxy)pyrimidin-4-yl)-2,8-diazaspiro[4.5]decane-3-carboxylate] | **** (and refers to P<0.0005)
Cc1ccn(-c2cc(Cl)ccc2[C@@H](Oc2cc(N3CCC4(CC3)CN[C@H](C(=O)OCC(C)(C)C)C4)nc(N)n2)C(F)(F)F)n1 [Example 64f, (S)-neopentyl 8-(2-amino-6-((R)-1-(4-chloro-2-(3-methyl-1H-pyrazol-1-yl)phenyl)-2,2,2-trifluoroethoxy)pyrimidin-4-yl)-2,8-diazaspiro[4.5]decane-3-carboxylate] | **** (and refers to P<0.0005)
CCCCOC(=O)[C@@H]1CC2(CCN(c3cc(O[C@H](c4ccc(Cl)cc4-n4ccc(C)n4)C(F)(F)F)nc(N)n3)CC2)CN1 [Example 64g, (S)-butyl 8-(2-amino-6-((R)-1-(4-chloro-2-(3-methyl-1H-pyrazol-1-yl)phenyl)-2,2,2-trifluoroethoxy)pyrimidin-4-yl)-2,8-diazaspiro[4.5]decane-3-carboxylate] | * (* refers to P<0.05)
Cc1ccn(-c2cc(Cl)ccc2[C@@H](Oc2cc(N3CCC4(CC3)CN[C@H](C(=O)OC(C)(C)C)C4)nc(N)n2)C(F)(F)F)n1 [Example 65a, (S)-Tert-butyl 8-(2-amino-6-((R)-1-(4-chloro-2-(3-methyl-1H-pyrazol-1-yl)phenyl)-2,2,2-trifluoroethoxy)pyrimidin-4-yl)-2,8-diazaspiro[4.5]decane-3-carboxylate] | **** (and refers to P<0.0005)
Cc1ccn(-c2cc(Cl)ccc2[C@@H](Oc2cc(N3CCC4(CC3)CN[C@H](C(=O)OCCOC(=O)[C@H](N)C(C)C)C4)nc(N)n2)C(F)(F)F)n1 [Example 66c, (S)-2-(((R)-2-amino-3-methylbutanoyl)oxy)ethyl 8-(2-amino-6-((R)-1-(4-chloro-2-(3-methyl-1H-pyrazol-1-yl)phenyl)-2,2,2-trifluoroethoxy)pyrimidin-4-yl)-2,8-diazaspiro[4.5]decane-3-carboxylate] | **** (and refers to P<0.0005)
(S)-2-(pivaloyloxy)ethyl 8-(2-amino-6- ((R)-1-(4-chloro-2-(3-methyl-1H-pyrazol- 1-yl)phenyl)-2,2,2- trifluoroethoxy)pyrimidin-4-yl)-2,8- diazaspiro[4.5]decane-3-carboxylate [Example 66d] | **** (and refers to P<0.0005)
(S)-isopropyl 8-(2-amino-6-((R)-1-(4-chloro-2-(3-methyl- 1H-pyrazol-1-yl)phenyl)-2,2,2-trifluoroethoxy)pyrimidin- 4-yl)-2,8-diazaspiro[4.5]decane-3-carboxylate [Example 64h] | ** (** refers to P<0.01)
